Measured values taken from ChEMBL document CHEMBL4270599, “Synthesis of a 3'-C-ethynyl-β-d-ribofuranose purine nucleoside library: Discovery of C7-deazapurine analogs as potent antiproliferative nucleosides” (Eur J Med Chem, 2018).

Experiments:
Type in all cases: functional
RPMI-8226 = assay: Cytotoxicity against human RPMI8226 cells after 48 hrs by SRB assay; conditions: RPMI-8226, 48 h; for GI50: read-out: GI50; for CC50: read-out: LC50 (the source's name); for TGI: read-out: TGI
A549 [1] = assay: Cytotoxicity against human A549 cells after 48 hrs by SRB assay; conditions: A549, 48 h; for GI50: read-out: GI50
NCI-H322M = assay: Cytotoxicity against human NCI-H322M cells after 48 hrs by SRB assay; conditions: for GI50: read-out: GI50; for TGI: read-out: TGI; for CC50: read-out: pLC50 (the source's name) (converted)
KM12 = assay: Cytotoxicity against human KM12 cells after 48 hrs by SRB assay; conditions: KM12, 48 h; for GI50: read-out: GI50
SNB-75 = assay: Cytotoxicity against human SNB75 cells after 48 hrs by SRB assay; conditions: SNB-75, 48 h; for GI50: read-out: GI50; for CC50: read-out: LC50 (the source's name); for TGI: read-out: TGI
SK-MEL-28 = assay: Cytotoxicity against human SK-MEL-28 cells after 48 hrs by SRB assay; conditions: SK-MEL-28, 48 h; for GI50: read-out: GI50; for TGI: read-out: TGI
SK-MEL-5 = assay: Cytotoxicity against human SK-MEL-5 cells after 48 hrs by SRB assay; conditions: SK-MEL-5, 48 h; for GI50: read-out: GI50; for CC50: read-out: LC50 (the source's name); for TGI: read-out: TGI
OVCAR-8 [2] = assay: Cytotoxicity against human OVCAR8 cells after 48 hrs by SRB assay; conditions: OVCAR-8, 48 h; for GI50: read-out: GI50
BT-549 [3] = assay: Cytotoxicity against human BT549 cells after 48 hrs by SRB assay; conditions: BT-549, 48 h; for GI50: read-out: GI50; for TGI: read-out: TGI
MOLT-4 = assay: Growth inhibition of human MOLT4 cells assessed as cell growth at 10^-8 M incubated for 48 hrs by sulforhodamine B assay relative to control; conditions: MOLT-4, 48 h, read-out: Activity
HOP-92 = assay: Growth inhibition of human HOP92 cells assessed as cell growth at 10^-8 M incubated for 48 hrs by sulforhodamine B assay relative to control; conditions: HOP-92, 48 h, read-out: Activity
HT-29 [4] = assay: Growth inhibition of human HT-29 cells assessed as cell growth at 10^-8 M incubated for 48 hrs by sulforhodamine B assay relative to control; conditions: HT-29, 48 h, read-out: Activity
SNB-19 = assay: Growth inhibition of human SNB19 cells assessed as cell growth at 10^-8 M incubated for 48 hrs by sulforhodamine B assay relative to control; conditions: SNB-19, 48 h, read-out: Activity
Malme-3M = assay: Growth inhibition of human MALME-3M cells assessed as cell growth at 10^-8 M incubated for 48 hrs by sulforhodamine B assay relative to control; conditions: read-out: Activity
OVCAR-4 = assay: Growth inhibition of human OVCAR4 cells assessed as cell growth at 10^-8 M incubated for 48 hrs by sulforhodamine B assay relative to control; conditions: OVCAR-4, 48 h, read-out: Activity
BT-549 [5] = assay: Growth inhibition of human BT549 cells assessed as cell growth at 10^-8 M incubated for 48 hrs by sulforhodamine B assay relative to control; conditions: BT-549, 48 h, read-out: Activity
T47D = assay: Growth inhibition of human T47D cells assessed as cell growth at 10^-8 M incubated for 48 hrs by sulforhodamine B assay relative to control; conditions: read-out: Activity
MDA-MB-468 = assay: Growth inhibition of human MDA-MB-468 cells assessed as cell growth at 10^-8 M incubated for 48 hrs by sulforhodamine B assay relative to control; conditions: MDA-MB-468, 48 h, read-out: Activity
NCI-H460 = assay: Growth inhibition of human NCI-H460 cells assessed as cell growth at 10^-7 M incubated for 48 hrs by sulforhodamine B assay relative to control; conditions: NCI-H460, 48 h, read-out: Activity
SF-295 = assay: Growth inhibition of human SF295 cells assessed as cell growth at 10^-7 M incubated for 48 hrs by sulforhodamine B assay relative to control; conditions: SF-295, 48 h, read-out: Activity
LOX IMVI = assay: Growth inhibition of human LOXIMVI cells assessed as cell growth at 10^-7 M incubated for 48 hrs by sulforhodamine B assay relative to control; conditions: read-out: Activity
TK-10 [6] = assay: Growth inhibition of human TK10 cells assessed as cell growth at 10^-7 M incubated for 48 hrs by sulforhodamine B assay relative to control; conditions: TK-10, 48 h, read-out: Activity
HT-29 [7] = assay: Growth inhibition of human HT-29 cells assessed as cell growth at 10^-6 M incubated for 48 hrs by sulforhodamine B assay relative to control; conditions: HT-29, 48 h, read-out: Activity
SW-620 [8] = assay: Growth inhibition of human SW620 cells assessed as cell growth at 10^-6 M incubated for 48 hrs by sulforhodamine B assay relative to control; conditions: SW-620, 48 h, read-out: Activity
SF-539 = assay: Growth inhibition of human SF539 cells assessed as cell growth at 10^-6 M incubated for 48 hrs by sulforhodamine B assay relative to control; conditions: SF-539, 48 h, read-out: Activity
OVCAR-8 [9] = assay: Growth inhibition of human OVCAR8 cells assessed as cell growth at 10^-6 M incubated for 48 hrs by sulforhodamine B assay relative to control; conditions: OVCAR-8, 48 h, read-out: Activity
SW-620 [10] = assay: Growth inhibition of human SW620 cells assessed as cell growth at 10^-4 M incubated for 48 hrs by sulforhodamine B assay relative to control; conditions: SW-620, 48 h, read-out: Activity
TK-10 [11] = assay: Growth inhibition of human TK10 cells assessed as cell growth at 10^-4 M incubated for 48 hrs by sulforhodamine B assay relative to control; conditions: TK-10, 48 h, read-out: Activity
UACC-62 = assay: Growth inhibition of human UACC62 cells assessed as cell growth at 10^-6 M incubated for 48 hrs by sulforhodamine B assay relative to control; conditions: UACC-62, 48 h, read-out: Activity
A549 [12] = assay: Growth inhibition of human A549/ATCC cells assessed as cell growth at 10^-4 M incubated for 48 hrs by sulforhodamine B assay relative to control; conditions: A549, 48 h, read-out: Activity
786-0 = assay: Growth inhibition of human 786-0 cells assessed as cell growth at 10^-6 M incubated for 48 hrs by sulforhodamine B assay relative to control; conditions: 786-0, 48 h, read-out: Activity
SK-OV-3 = assay: Growth inhibition of human SKOV3 cells assessed as cell growth at 10^-4 M incubated for 48 hrs by sulforhodamine B assay relative to control; conditions: SK-OV-3, 48 h, read-out: Activity
[13] = read-out: pLC50 (the source's name) (converted)
[14] = read-out: LC50 (the source's name)

Compound: C#C[C@@]1(O)[C@@H](CO)O[C@@H](n2cc(Br)c3c(N)ncnc32)[C@@H]1O
- GI50 (RPMI-8226): 67.3 to 242 nM
- CC50 (RPMI-8226): > 100000 nM
- TGI (RPMI-8226): 733 to 934 nM
- GI50 (A549 [1]): 90 to 283 nM
- CC50 (A549 [1]; [13]): > 100000 nM
- GI50 (NCI-H322M): 326 to 372 nM
- TGI (NCI-H322M): 4740 to 5410 nM
- CC50 (NCI-H322M): > 100000 nM
- GI50 (KM12): 94.6 to 121 nM
- TGI (KM12; read-out: TGI): > 100000 nM
- CC50 (KM12; [13]): > 100000 nM
- TGI (KM12; read-out: pTGI (converted)): > 100000 nM
- GI50 (SNB-75): 221 to 249 nM
- CC50 (SNB-75): 1640 to 3670 nM
- TGI (SNB-75): 519 to 1070 nM
- GI50 (SK-MEL-28): 3050 to 4370 nM
- CC50 (SK-MEL-28; [14]): > 100000 nM
- TGI (SK-MEL-28): 30200 to 48100 nM
- GI50 (SK-MEL-5): 47.8 to 239 nM
- CC50 (SK-MEL-5): 6240 to 100000 nM
- TGI (SK-MEL-5): 522 to 7180 nM
- GI50 (OVCAR-8 [2]): 13.5 to 62.5 nM
- CC50 (OVCAR-8 [2]; [14]): > 100000 nM
- TGI (OVCAR-8 [2]; read-out: TGI): 1120 nM
- TGI (OVCAR-8 [2]; read-out: pTGI (converted)): 1120 nM
- GI50 (BT-549 [3]): 147 to 234 nM
- CC50 (BT-549 [3]; [14]): > 100000 nM
- TGI (BT-549 [3]): 536 to 819 nM
- growth at 0.01 µM (MOLT-4): 86 to 95%
- growth at 0.01 µM (HOP-92): 90 to 94%
- growth at 0.01 µM (HT-29 [4]): 78 to 94%
- growth at 0.01 µM (SNB-19): 64 to 98%
- growth at 0.01 µM (Malme-3M): 100 to 102%
- growth at 0.01 µM (OVCAR-4): 96 to 100%
- growth at 0.01 µM (BT-549 [5]): 89 to 103%
- growth at 0.01 µM (T47D): 64 to 81%
- growth at 0.01 µM (MDA-MB-468): 88 to 99%
- growth at 0.1 µM (NCI-H460): 9 to 27%
- growth at 0.1 µM (SF-295): 60 to 78%
- growth at 0.1 µM (LOX IMVI): 20 to 52%
- growth at 0.1 µM (TK-10 [6]): 99 to 103%
- growth at 1 µM (HT-29 [7]): 5 to 8%
- growth at 1 µM (SW-620 [8]): 4 to 9%
- growth at 1 µM (SF-539): 3 to 19%
- growth at 1 µM (OVCAR-8 [9]): 1 to 4%
- growth at 100 µM (SW-620 [10]): 4 to 6%
- growth at 100 µM (TK-10 [11]): 7%
- growth at 1 µM (UACC-62): 21 to 23%
- growth at 100 µM (A549 [12]): 9 to 12%

Compound: C#C[C@@]1(O)[C@@H](CO)O[C@@H](n2cc(I)c3c(N)ncnc32)[C@@H]1O
- GI50 (RPMI-8226): 275 to 428 nM
- CC50 (RPMI-8226): 91500 to 100000 nM
- TGI (RPMI-8226): 4570 to 6650 nM
- GI50 (A549 [1]): 297 to 589 nM
- CC50 (A549 [1]; [14]): > 100000 nM
- TGI (A549 [1]; read-out: TGI): > 100000 nM
- TGI (A549 [1]; read-out: pTGI (converted)): > 100000 nM
- GI50 (NCI-H322M): 405 to 683 nM
- TGI (NCI-H322M): 7490 to 42800 nM
- CC50 (NCI-H322M): > 100000 nM
- GI50 (KM12): 92.8 to 99.8 nM
- CC50 (KM12; [14]): > 100000 nM
- TGI (KM12; read-out: TGI): > 100000 nM
- TGI (KM12; read-out: pTGI (converted)): > 100000 nM
- GI50 (SNB-75): 373 to 559 nM
- CC50 (SNB-75): 5530 to 5920 nM
- TGI (SNB-75): 1810 to 2180 nM
- GI50 (SK-MEL-28): 1560 to 2460 nM
- TGI (SK-MEL-28): 9270 to 14000 nM
- CC50 (SK-MEL-28; [13]): > 100000 nM
- GI50 (SK-MEL-5): 179 to 243 nM
- CC50 (SK-MEL-5): > 100000 nM
- TGI (SK-MEL-5): 2090 to 5200 nM
- GI50 (OVCAR-8 [2]): 42.3 to 49 nM
- TGI (OVCAR-8 [2]; read-out: TGI): 1460 to 100000 nM
- CC50 (OVCAR-8 [2]; [13]): > 100000 nM
- GI50 (BT-549 [3]): 175 to 384 nM
- TGI (BT-549 [3]): 3260 to 4940 nM
- CC50 (BT-549 [3]; [13]): > 100000 nM
- growth at 0.01 µM (MOLT-4): 75 to 83%
- growth at 0.01 µM (HOP-92): 58 to 74%
- growth at 0.01 µM (HT-29 [4]): 56 to 73%
- growth at 0.01 µM (SNB-19): 88 to 92%
- growth at 0.01 µM (Malme-3M): 85 to 98%
- growth at 0.01 µM (OVCAR-4): 90 to 104%
- growth at 0.01 µM (BT-549 [5]): 86 to 96%
- growth at 0.01 µM (T47D): 13 to 44%
- growth at 0.01 µM (MDA-MB-468): 81 to 93%
- growth at 0.1 µM (NCI-H460): 37 to 56%
- growth at 0.1 µM (SF-295): 63 to 76%
- growth at 0.1 µM (LOX IMVI): 27 to 46%
- growth at 0.1 µM (TK-10 [6]): 85 to 96%
- growth at 1 µM (HT-29 [7]): 9 to 13%
- growth at 1 µM (SW-620 [8]): 12 to 17%
- growth at 1 µM (SF-539): 23 to 35%
- growth at 1 µM (OVCAR-8 [9]): 3 to 5%
- growth at 1 µM (786-0): 13 to 23%
- growth at 100 µM (SW-620 [10]): 3%
- growth at 100 µM (SK-OV-3): -9%
- growth at 1 µM (UACC-62): 40 to 43%
- growth at 100 µM (A549 [12]): 4 to 8%
